According to US20160311788A1, “Antifouling Compounds And Use Thereof” (National University of Singapore, priority 2008, published 2016):

Legend:
[1] = test system: Pseudomonas putida (Strain KT2440; BCRC 10459); test: disc inhibition assay, REF 4; type: cell-based
Experimental: (§1) 13 strains of marine bacteria were isolated from fouling communities located in the coastal waters around Singapore. These were characterized in earlier studies and reported in Teo et al. (U.S. patent application Ser. No. 11/265,833) and Choong et al (in prep). In addition, four reference bacterial strains were added tested: Escherichia coli (Strain K12, ATCC 15222), E. coli (strain DH5a), Pseudomonas aeruginosa (strain LMG 12228; ATCC 15692) and P. putida (strain KT2440; ATCC 47054). All the bacteria were also tested against five antibiotics: ampicillin (AMP), tetracycline (TETR), erythromycin (ERY), chloramphenicol (CHL) and streptomycin (STREP).
(§2) Disks comprising the compounds to be tested were prepared as follows. The antibacterial assay, the pure compounds were made up to a concentration of 2 mgml^−1 in DMSO. 25 μl of the stock was pipetted onto each 6 mm sterile disc (Macherey-Nagel #484000) to obtain 50 μg of compound per disc. Equivalent volume of DMSO was used inoculated for the control.
(§3) For all disk inhibition assays, bacterial cultures were grown in marine broth (Pronadisa #1217.00). Sterile swabs dipped into the cultures were used to inoculate Marine Agar plates with a bacterial lawn by smearing the culture over the surface. After inoculating the plates, discs with antibiotics, pharmaceuticals or control blanks were placed on each plate. Each concentration of antibiotic or pharmaceutical was tested with two replicates. After the disks were placed on the agar surface, plates were incubated overnight in the dark at 35° C. After incubation, plates were examined for zones of inhibition or clearing around control and treated disks. The diameter of any zone of clearing or inhibition was measured using Vernier calipers. There were two replicates per treatment, and the average was taken. There was no zone of inhibition around the control blanks in all the assays.

[2] = test system: marine bacteria strain S28; test: disc inhibition assay, strain S28; type: cell-based, Arthrobacter protophormial; settings: Arthrobacter, S28, 24 h
Procedure, shortened: (§4)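 Zone-of-inhibition diameters (caliper, n=2 averaged) were recorded after overnight dark incubation at 35° C. Test discs of 6 mm bore 50 μg compound delivered in DMSO, placed on lawns of the marine strain grown in marine broth and spread on Marine Agar; solvent discs served as controls.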

[3] = test system: marine bacteria strain S10; test: disc inhibition assay, strain S10; type: cell-based, Halobacillus trueperi; settings: Halobacillus trueperi, S10, 24 h
Procedure, shortened: as §4

[4] = test system: marine bacteria strain S27; test: disc inhibition assay, strain S27; type: cell-based, Tenacibaculum lutimaris; settings: Tenacibaculum lutimaris, S27, 24 h
Procedure, shortened: as §4

[5] = test system: marine bacteria strain S17; test: disc inhibition assay, strain S17; type: cell-based, Gordonia terrae; settings: Gordonia terrae, S17, 24 h
Procedure, shortened: as §4

[6] = test system: Escherichia coli (Strain K12; ATCC 15222); test: disc inhibition assay, REF 1; type: cell-based
Experimental: as §1, §2, §3

[7] = test system: marine bacteria strain S18; test: disc inhibition assay, strain S18; type: cell-based, Microbacterium esteraromaticum; settings: Microbacterium esteraromaticum, S18, 24 h
[8] = test system: Escherichia coli (Strain DH5a); test: disc inhibition assay, REF 2; type: cell-based
Experimental: as §1, §2, §3

[9] = test system: marine bacteria strain S9; test: disc inhibition assay, strain S9; type: cell-based, Bacillus algicola; settings: Guptibacillus algicola, S9, 24 h
Procedure, shortened: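 50 μg compound/6 mm disc (from 2 mg/ml DMSO stock); DMSO blank disc control. Lawn swabbed on Marine Agar from marine broth culture. Overnight, 35° C, dark. Readout: inhibition zone diameter (calipers), mean of 2 replicates.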

[10] = test system: marine bacteria strain S29; test: disc inhibition assay, strain S29; type: cell-based, Bacillus hwajinpoensis; settings: Guptibacillus hwajinpoensis, S29, 24 h
Procedure, shortened: as §4

[11] = test system: marine bacteria strain S3; test: disc inhibition assay, strain S3; type: cell-based, Erythrobacter aquimaris; settings: Qipengyuania aquimaris, S3, 24 h
Procedure, shortened: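 Disc inhibition assay against a marine bacterial strain isolated from fouling communities in Singapore coastal waters. The strain was grown in marine broth and swabbed over Marine Agar plates as a lawn. 6 mm sterile discs loaded with compound in DMSO, or DMSO controls, were placed on the plates and incubated overnight in the dark at 35° C.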

[12] = test system: marine bacteria strain S1; test: disc inhibition assay, strain S1; type: cell-based, Rhodovulum iodosum
Procedure, shortened: as §4

[13] = test system: marine bacteria strain S16; test: disc inhibition assay, strain S16; type: cell-based, Pseudoalteromonas piscicida; settings: Pseudoalteromonas piscicida, S16, 24 h
Procedure, shortened: as §4

[14] = test system: marine bacteria strain S4; test: disc inhibition assay, strain S4; type: cell-based, Bacillus algicola; settings: Guptibacillus algicola, S4, 24 h
Procedure, shortened: as §4

[15] = test system: Pseudomonas aeruginosa (strain LMG 12228; ATCC 15692); test: disc inhibition assay, REF 3; type: cell-based
Experimental: as §1, §2, §3

[16] = test system: marine bacteria strain S14; test: disc inhibition assay, strain S14; type: cell-based, Vibrio probioticus
[17] = test system: marine bacteria strain S30; test: disc inhibition assay, strain S30; type: cell-based, Bacillus borophilicus; settings: Bacillus, S30, 24 h
Procedure, shortened: as §4

In the case of `O=C(N[C@H](CO)[C@H](O)c1ccc([N+](=O)[O-])cc1)C(Cl)Cl` [CHL, Chloramphenicol, reference compound], the zone of inhibition ([1]; REF 4, 30 ug) is reported as “++ (5-10 mm zone was observed.)”, the zone of inhibition at 30 µg/disc ([2]; strain 28, 30 ug) is reported as > 10 mm and the zone of inhibition at 30 µg/disc ([3]; strain 10, 30 ug) is reported as > 10 mm. For the same compound, the zone of inhibition at 30 µg/disc ([4]; strain 27, 30 ug) was > 10 mm, the zone of inhibition at 30 µg/disc ([5]; strain 17, 30 ug) was > 10 mm and the zone of inhibition ([6]; REF 1, 30 ug) was “++ (5-10 mm zone was observed.)”. The zone of inhibition at 30 µg/disc ([7]; strain 18, 30 ug) was 5 to 10 mm, the zone of inhibition ([8]; REF 2, 30 ug) was “++ (5-10 mm zone was observed.)” and the zone of inhibition at 30 µg/disc ([9]; strain 9, 30 ug) was > 10 mm. The zone of inhibition at 30 µg/disc ([10]; strain 29, 30 ug) was > 10 mm, the zone of inhibition at 30 µg/disc ([11]; strain 3, 30 ug) was > 10 mm and the zone of inhibition at 30 µg/disc ([12]; Rhodovulum iodosum, S1, strain 1, 30 ug) was 5 to 10 mm. The zone of inhibition at 30 µg/disc ([13]; strain 16, 30 ug) was 5 to 10 mm, the zone of inhibition at 30 µg/disc ([14]; strain 4, 30 ug) was > 10 mm and the zone of inhibition ([15]; REF 3, 30 ug) was “++ (5-10 mm zone was observed.)”. For the same compound, the zone of inhibition at 30 µg/disc ([16]; Vibrio, S14, 24 h) was 5 to 10 mm and the zone of inhibition at 30 µg/disc ([17]; strain 30, 30 ug) was 5 to 10 mm.

With `CC[C@H]1OC(=O)[C@H](C)[C@@H](O[C@H]2C[C@@](C)(OC)[C@@H](O)[C@H](C)O2)[C@H](C)[C@@H](O[C@@H]2O[C@H](C)C[C@H](N(C)C)[C@H]2O)[C@](C)(O)C[C@@H](C)C(=O)[C@H](C)[C@@H](O)[C@]1(C)O` [ERY, Erythromycin, reference compound] the zone of inhibition ([1]; REF 4, 5 ug) was “+ (2-5 mm zone of inhibition around each disk was observed.)”, the zone of inhibition ([1]; REF 4, 15 ug) was “+ (2-5 mm zone of inhibition around each disk was observed.)” and the zone of inhibition at 5 µg/disc ([2]; strain 28, 5 ug) was > 10 mm. The zone of inhibition at 15 µg/disc ([2]; strain 28, 15 ug) was > 10 mm, the zone of inhibition at 5 µg/disc ([3]; strain 10, 5 ug) was 5 to 10 mm and the zone of inhibition at 15 µg/disc ([3]; strain 10, 15 ug) was > 10 mm. For the same compound, the zone of inhibition at 5 µg/disc ([4]; strain 27, 5 ug) was 5 to 10 mm, the zone of inhibition at 15 µg/disc ([4]; strain 27, 15 ug) was 5 to 10 mm and the zone of inhibition at 5 µg/disc ([5]; strain 17, 5 ug) was > 10 mm. The zone of inhibition at 15 µg/disc ([5]; strain 17, 15 ug) was > 10 mm, the zone of inhibition ([6]; REF 1, 5 ug) was “−” and the zone of inhibition ([6]; REF 1, 15 ug) was “+ (2-5 mm zone of inhibition around each disk was observed.)”. The zone of inhibition at 5 µg/disc ([7]; strain 18, 5 ug) was 2 to 5 mm, the zone of inhibition at 15 µg/disc ([7]; strain 18, 15 ug) was 5 to 10 mm and the zone of inhibition ([8]; REF 2, 5 ug) was “−”. For the same compound, the zone of inhibition ([8]; REF 2, 15 ug) was “+ (2-5 mm zone of inhibition around each disk was observed.)”, the zone of inhibition at 5 µg/disc ([9]; strain 9, 5 ug) was > 10 mm and the zone of inhibition at 15 µg/disc ([9]; strain 9, 15 ug) was > 10 mm. The zone of inhibition at 5 µg/disc ([10]; strain 29, 5 ug) was > 10 mm, the zone of inhibition at 15 µg/disc ([10]; strain 29, 15 ug) was > 10 mm and the zone of inhibition at 5 µg/disc ([11]; strain 3, 5 ug) was 5 to 10 mm. For the same compound, the zone of inhibition at 15 µg/disc ([11]; strain 3, 15 ug) was 5 to 10 mm, the zone of inhibition ([12]; strain 1, 5 ug) was “−” and the zone of inhibition ([12]; strain 1, 15 ug) was “−”. For the same compound, the zone of inhibition at 5 µg/disc ([13]; strain 16, 5 ug) was 2 to 5 mm, the zone of inhibition at 15 µg/disc ([13]; strain 16, 15 ug) was 2 to 5 mm and the zone of inhibition at 5 µg/disc ([14]; strain 4, 5 ug) was > 10 mm. The zone of inhibition at 15 µg/disc ([14]; strain 4, 15 ug) was > 10 mm, the zone of inhibition ([15]; REF 3, 5 ug) was “+ (2-5 mm zone of inhibition around each disk was observed.)” and the zone of inhibition ([15]; REF 3, 15 ug) was “+ (2-5 mm zone of inhibition around each disk was observed.)”. The zone of inhibition at 15 µg/disc ([16]; Vibrio, S14, 24 h) was 2 to 5 mm, the zone of inhibition ([16]; strain 14, 5 ug) was “−” and the zone of inhibition at 5 µg/disc ([17]; strain 30, 5 ug) was 5 to 10 mm. It also gave a zone of inhibition at 15 µg/disc ([17]; strain 30, 15 ug) of 5 to 10 mm.
